Experimental findings from patent US11780893B2, “Kv1.3 blockers” (Zealand Pharma A/S, priority 2019, dated 2023) are described below.

Molecules are shown by their SMILES. pIC50: −log10 of the molar value. Like-named read-outs stand apart in the source and are kept apart here. Bridge positions count the residues as written; N and C are the ends. Square brackets hold non-standard residues; d marks the D form. Peptide text beside a SMILES is read from it. Nle = CCCC[C@H](N)C(=O)O

What all share (assay): cell-based
For test [1], the target named is T1, Kv1.2 (Homo sapiens, UniProt P16389).
T1 construct: expressed in transfected cells; host or cells: Chinese Hamster Ovary (CHO)
T1 sequence (P16389 whole entry): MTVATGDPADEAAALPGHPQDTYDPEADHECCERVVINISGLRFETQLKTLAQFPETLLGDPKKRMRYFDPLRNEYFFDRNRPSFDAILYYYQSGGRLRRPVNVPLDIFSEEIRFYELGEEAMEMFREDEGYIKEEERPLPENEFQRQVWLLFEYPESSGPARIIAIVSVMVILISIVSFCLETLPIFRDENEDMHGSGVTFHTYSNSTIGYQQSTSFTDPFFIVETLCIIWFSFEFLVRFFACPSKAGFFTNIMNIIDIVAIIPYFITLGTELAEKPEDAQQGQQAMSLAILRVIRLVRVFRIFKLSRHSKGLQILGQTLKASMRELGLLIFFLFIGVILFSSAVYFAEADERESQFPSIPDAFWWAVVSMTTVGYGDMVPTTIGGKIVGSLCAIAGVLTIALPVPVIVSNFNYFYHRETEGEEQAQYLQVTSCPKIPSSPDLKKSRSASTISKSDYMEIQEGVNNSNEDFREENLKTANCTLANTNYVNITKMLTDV
As to conditions: for IC50: CHO cells, whole-cell patch clamp, read-out: Potency IC50 (nM) Kv1.2.

Test [2] concerns the target T2, Kv1.6 (Homo sapiens, UniProt P17658).
T2 construct: expressed in transfected cells; host or cells: Chinese Hamster Ovary (CHO)
As to conditions: for IC50: CHO cells, whole-cell patch clamp, read-out: Potency IC50 (nM) Kv1.6; for Selectivity Kv1.6/Kv1.3: ratio IC50[Kv1.6]/IC50[Kv1.3]. Background: In patch-clamp work, channel activity is measured electrically.

For test [3], the target named is T3, Kv1.3 (Homo sapiens, UniProt P22001).
T3 construct: expressed in transfected cells; host or cells: Chinese Hamster Ovary (CHO)
T3 sequence (P22001 whole entry): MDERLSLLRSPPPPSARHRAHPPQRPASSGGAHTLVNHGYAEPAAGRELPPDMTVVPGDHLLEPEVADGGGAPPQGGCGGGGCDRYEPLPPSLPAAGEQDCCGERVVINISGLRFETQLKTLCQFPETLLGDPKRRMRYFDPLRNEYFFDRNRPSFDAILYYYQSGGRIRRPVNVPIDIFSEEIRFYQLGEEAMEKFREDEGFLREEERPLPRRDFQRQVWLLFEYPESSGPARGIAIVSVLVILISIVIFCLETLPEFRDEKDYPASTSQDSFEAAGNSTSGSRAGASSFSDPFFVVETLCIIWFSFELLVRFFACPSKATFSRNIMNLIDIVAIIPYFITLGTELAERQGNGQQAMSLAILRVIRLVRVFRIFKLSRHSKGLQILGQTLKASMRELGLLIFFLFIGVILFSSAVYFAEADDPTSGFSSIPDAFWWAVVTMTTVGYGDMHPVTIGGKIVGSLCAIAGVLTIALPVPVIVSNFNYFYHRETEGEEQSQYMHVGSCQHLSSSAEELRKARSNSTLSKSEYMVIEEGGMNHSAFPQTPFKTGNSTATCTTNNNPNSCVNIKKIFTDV
As to conditions: for IC50: CHO cells, whole-cell patch clamp, read-out: Potency IC50 (nM) Kv1.3.

In test [4] the target is T4, Kv1.1 (Homo sapiens, UniProt Q09470).
T4 construct: expressed in transfected cells; host or cells: Chinese Hamster Ovary (CHO)
T4 sequence (Q09470 whole entry): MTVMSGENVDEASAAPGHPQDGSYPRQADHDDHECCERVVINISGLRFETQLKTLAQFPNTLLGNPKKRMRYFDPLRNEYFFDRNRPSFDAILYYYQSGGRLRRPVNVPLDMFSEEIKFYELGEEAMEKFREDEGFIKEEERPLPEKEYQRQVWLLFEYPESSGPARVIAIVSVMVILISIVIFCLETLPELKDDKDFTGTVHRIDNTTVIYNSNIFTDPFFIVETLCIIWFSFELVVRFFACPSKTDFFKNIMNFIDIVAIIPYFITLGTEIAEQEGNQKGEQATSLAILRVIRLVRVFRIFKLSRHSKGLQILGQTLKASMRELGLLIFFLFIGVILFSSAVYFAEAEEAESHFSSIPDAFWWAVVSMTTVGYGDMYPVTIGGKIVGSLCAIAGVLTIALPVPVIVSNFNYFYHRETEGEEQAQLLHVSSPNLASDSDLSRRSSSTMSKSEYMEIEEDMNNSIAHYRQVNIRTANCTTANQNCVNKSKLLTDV
The note with it: for IC50: CHO cells, whole-cell patch clamp, read-out: Potency IC50 (nM) Kv1.1; for Selectivity Kv1.1/Kv1.3: ratio IC50[Kv1.1]/IC50[Kv1.3].

Test [5] has as its target T5, human Kv1.3 voltage-gated K+ channel (Homo sapiens, UniProt P22001).
T5 construct: host or cells: CHO-DUKX

Setting [6] is: inhibition of thallium flux, CHO-DUKX cells with human Kv1.3, read-out: IC50.

T5 sequence (P22001 whole entry): as the sequence (P22001 whole entry) above
T2 sequence (P17658 whole entry): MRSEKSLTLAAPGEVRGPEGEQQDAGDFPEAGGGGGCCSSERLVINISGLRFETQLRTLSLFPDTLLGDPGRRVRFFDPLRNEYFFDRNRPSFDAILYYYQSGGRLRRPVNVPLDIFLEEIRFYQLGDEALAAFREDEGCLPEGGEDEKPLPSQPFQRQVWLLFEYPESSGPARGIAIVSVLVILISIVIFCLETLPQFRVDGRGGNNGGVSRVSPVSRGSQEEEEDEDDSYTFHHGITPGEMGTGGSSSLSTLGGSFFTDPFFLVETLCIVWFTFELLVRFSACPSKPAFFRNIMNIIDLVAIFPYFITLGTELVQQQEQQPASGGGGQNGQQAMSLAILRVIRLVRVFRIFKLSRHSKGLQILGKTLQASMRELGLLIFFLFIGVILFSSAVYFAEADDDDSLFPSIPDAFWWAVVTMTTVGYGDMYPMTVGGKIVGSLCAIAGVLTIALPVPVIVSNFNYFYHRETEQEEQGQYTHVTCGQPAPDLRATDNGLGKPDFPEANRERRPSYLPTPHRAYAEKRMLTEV

For `CC[C@H](C)[C@@H]1NC(=O)[C@H](C)NC(=O)[C@H](CCCCN)NC(=O)[C@H](CC(C)C)NC(=O)[C@@H]2CSSC[C@@H](C(=O)N[C@@H](Cc3ccc(O)cc3)C(=O)N3CCC[C@H]3C(=O)N[C@@H](CCCNC(=N)N)C(N)=O)NC(=O)[C@H](CCCCN)NC(=O)[C@@H]3CSSC[C@H](NC(=O)[C@H](CCC(=O)O)NC(=O)[C@H](C(C)C)NC(=O)[C@H](CO)NC(=O)[C@H](C)NC(=O)[C@H](CO)NC(=O)[C@@H](NC(=O)[C@H](CCCNC(=N)N)NC(=O)[C@H](CCSC)NC(=O)[C@H](CC(=O)O)NC(=O)[C@H](CCSC)NC(=O)[C@@H](N)CC(N)=O)CSSC[C@H](NC(=O)[C@H](CCCCN)NC(=O)CNC(=O)[C@H](Cc4ccccc4)NC(=O)[C@H]([C@@H](C)CC)NC(=O)[C@H](CO)NC(=O)CNC1=O)C(=O)N[C@@H](CCSC)C(=O)N[C@@H](CC(N)=O)C(=O)NCC(=O)N[C@@H](CCCCN)C(=O)N3)C(=O)N[C@@H](CCCCN)C(=O)N[C@@H](CCC(N)=O)C(=O)N[C@@H](CCCCN)C(=O)N2` [Compound 36] (H-NMDMRCSASVECKQKCLKAIGSIFGKCMNGKCKCYPR-NH2; disulfide 6-27, 12-32, 16-34), the IC50 was 439 nM in test [1], greater than 3000 nM in test [2], 0.31 nM in test [3] and greater than 3000 nM in test [4]. The “Selectivity Kv1.6/Kv1.3” value in test [2] is listed as greater than 9700. For the same compound, the “Selectivity Kv1.1/Kv1.3” value in test [4] was greater than 9700. Also, the pIC50 in test [5] (setting [6]) was 9.62.

As to `CC[C@H](C)[C@@H]1NC(=O)[C@H](C)NC(=O)[C@H](CCCCN)NC(=O)[C@H](CC(C)C)NC(=O)[C@@H]2CSSC[C@@H](C(=O)N[C@@H](Cc3ccc(O)cc3)C(=O)N3CCC[C@H]3C(=O)N[C@@H](CCCNC(=N)N)C(=O)O)NC(=O)[C@H](CCCCN)NC(=O)[C@@H]3CSSC[C@H](NC(=O)[C@H](CCC(=O)O)NC(=O)[C@H](C(C)C)NC(=O)[C@H](CO)NC(=O)[C@H](C)NC(=O)[C@H](CO)NC(=O)[C@@H](NC(=O)[C@H](CCCNC(=N)N)NC(=O)[C@H](CCSC)NC(=O)[C@H](CC(=O)O)NC(=O)[C@H](CCSC)NC(=O)[C@@H](N)CCC(N)=O)CSSC[C@H](NC(=O)[C@H](CCCCN)NC(=O)CNC(=O)[C@H](Cc4ccccc4)NC(=O)CNC(=O)[C@H](CCCNC(=N)N)NC(=O)CNC1=O)C(=O)N[C@@H](CCSC)C(=O)N[C@@H](CC(N)=O)C(=O)N[C@@H](CCCCN)C(=O)N[C@@H](CCCCN)C(=O)N3)C(=O)N[C@@H](CCCCN)C(=O)N[C@@H](CCC(N)=O)C(=O)N[C@@H](CCCCN)C(=O)N2` [Compound 2] (H-QMDMRCSASVECKQKCLKAIGRGFGKCMNKKCKCYPR-OH; disulfide 6-27, 12-32, 16-34), the IC50 in test [1] was 97 nM; in test [2], 1810 nM; in test [3], 1.5 nM; in test [4], greater than 3000 nM. The “Selectivity Kv1.1/Kv1.3” value in test [4] is greater than 2000. In addition, the pIC50 in test [5] (setting [6]) is 9.60.

On to `CC[C@H](C)[C@@H]1NC(=O)[C@H](CCCNC(=N)N)NC(=O)[C@H](CCCCN)NC(=O)[C@H](CC(C)C)NC(=O)[C@@H]2CSSC[C@@H](C(=O)N[C@@H](Cc3ccc(O)cc3)C(=O)N3CCC[C@H]3C(=O)N[C@@H](CCCNC(=N)N)C(N)=O)NC(=O)[C@H](CCCCN)NC(=O)[C@@H]3CSSC[C@H](NC(=O)[C@H](CCC(=O)O)NC(=O)[C@H](C(C)C)NC(=O)[C@H](CO)NC(=O)[C@H](C)NC(=O)[C@H](CO)NC(=O)[C@@H](NC(=O)[C@H](CCCNC(=N)N)NC(=O)[C@H](CCSC)NC(=O)[C@H](CC(=O)O)NC(=O)[C@H](CCSC)NC(=O)[C@@H](N)CC(N)=O)CSSC[C@H](NC(=O)[C@H](CCCCN)NC(=O)CNC(=O)[C@H](Cc4ccccc4)NC(=O)[C@H]([C@@H](C)CC)NC(=O)[C@H](CO)NC(=O)CNC1=O)C(=O)N[C@@H](CCSC)C(=O)N[C@@H](CC(N)=O)C(=O)N[C@@H](CCCCN)C(=O)N[C@@H](CCCCN)C(=O)N3)C(=O)N[C@@H](CCCCN)C(=O)N[C@@H](CCC(N)=O)C(=O)N[C@@H](CCCCN)C(=O)N2` [Compound 56] (H-NMDMRCSASVECKQKCLKRIGSIFGKCMNKKCKCYPR-NH2; disulfide 6-27, 12-32, 16-34), for which the IC50 was 57 nM in test [1], 932 nM in test [2], 0.3 nM in test [3] and greater than 3000 nM in test [4]. The “Selectivity Kv1.1/Kv1.3” value in test [4] is on record as greater than 9900. In test [5] (setting [6]), the pIC50 is 10.06.

`CC[C@H](C)[C@@H]1NC(=O)[C@H](C)NC(=O)[C@H](CCCCN)NC(=O)[C@H](CC(C)C)NC(=O)[C@@H]2CSSC[C@@H](C(=O)N[C@@H](Cc3ccc(O)cc3)C(=O)N3CCC[C@H]3C(=O)N[C@@H](CCCNC(=N)N)C(=O)O)NC(=O)[C@H](CCCCN)NC(=O)[C@@H]3CSSC[C@H](NC(=O)[C@H](CCC(=O)O)NC(=O)[C@H](C(C)C)NC(=O)[C@H](CO)NC(=O)[C@H](C)NC(=O)[C@H](CO)NC(=O)[C@@H](N)CSSC[C@H](NC(=O)[C@H](CCCCN)NC(=O)CNC(=O)[C@H](Cc4ccccc4)NC(=O)[C@H]([C@@H](C)CC)NC(=O)[C@H](CO)NC(=O)CNC1=O)C(=O)N[C@@H](CCSC)C(=O)N[C@@H](CC(N)=O)C(=O)N[C@@H](CCCCN)C(=O)N[C@@H](CCCCN)C(=O)N3)C(=O)N[C@@H](CCCCN)C(=O)N[C@@H](CCC(N)=O)C(=O)N[C@@H](CCCCN)C(=O)N2` [Compound 117] (H-CSASVECKQKCLKAIGSIFGKCMNKKCKCYPR-OH; disulfide 1-22, 7-27, 11-29): the IC50 is 1830 nM in test [1], greater than 3000 nM in test [2], 2.09 nM in test [3] and greater than 3000 nM in test [4]. In addition, the “Selectivity Kv1.6/Kv1.3” value in test [2] is greater than 1400. Besides, the “Selectivity Kv1.1/Kv1.3” value in test [4] is given as greater than 1400. The pIC50 in test [5] (setting [6]) is 8.82.

With `CCCC[C@@H]1NC(=O)[C@@H]2CSSC[C@H](NC(=O)[C@H](CCCNC(=N)N)NC(=O)[C@H](CCCC)NC(=O)[C@H](CCC(=O)O)NC(=O)[C@@H](NC(=O)[C@@H]3CCCN3)[C@@H](C)CC)C(=O)N[C@@H](CO)C(=O)N[C@@H](C)C(=O)N[C@@H](CO)C(=O)N[C@@H](C(C)C)C(=O)N[C@@H](CCC(=O)O)C(=O)N[C@H]3CSSC[C@H](NC(=O)[C@H](CCCCN)NC(=O)[C@H](CCCCN)NC(=O)[C@H](CC(N)=O)NC1=O)C(=O)N[C@@H](CCCCN)C(=O)N[C@H](C(=O)N[C@@H](Cc1ccc(O)cc1)C(=O)N1CCC[C@H]1C(=O)N[C@@H](CCCNC(=N)N)C(=O)O)CSSC[C@H](NC(=O)[C@H](CCCCN)NC(=O)[C@H](CCC(N)=O)NC(=O)[C@H](CCCCN)NC3=O)C(=O)N[C@@H](CC(C)C)C(=O)N[C@@H](CCCCN)C(=O)N[C@@H](C)C(=O)N[C@@H]([C@@H](C)CC)C(=O)NCC(=O)N[C@@H](CO)C(=O)N[C@@H]([C@@H](C)CC)C(=O)N[C@@H](Cc1ccccc1)C(=O)NCC(=O)N[C@@H](CCCCN)C(=O)N2` [Compound 96] (H-PIE[Nle]RCSASVECKQKCLKAIGSIFGKC[Nle]NKKCKCYPR-OH; disulfide 6-27, 12-32, 16-34), the negative-log IC50 (pIC50) was 5.75 in test [1]; less than 5.52 in test [2]; 9.41 in test [3]; less than 5.52 in test [4]; 9.82 in test [5].

`CCCC[C@@H]1NC(=O)[C@@H]2CSSC[C@H](N)C(=O)N[C@@H](CO)C(=O)N[C@@H](C)C(=O)N[C@@H](CO)C(=O)N[C@@H](C(C)C)C(=O)N[C@@H](CCC(=O)O)C(=O)N[C@H]3CSSC[C@H](NC(=O)[C@H](CCCCN)NC(=O)[C@H](CCCCN)NC(=O)[C@H](CC(N)=O)NC1=O)C(=O)N[C@@H](CCCCN)C(=O)N[C@H](C(=O)N[C@@H](Cc1ccc(O)cc1)C(=O)N1CCC[C@H]1C(=O)N[C@@H](CCCNC(=N)N)C(N)=O)CSSC[C@H](NC(=O)[C@H](CCCCN)NC(=O)[C@H](CCC(N)=O)NC(=O)[C@H](CCCCN)NC3=O)C(=O)N[C@@H](CC(C)C)C(=O)N[C@@H](CCCCN)C(=O)N[C@@H](C)C(=O)N[C@@H]([C@@H](C)CC)C(=O)NCC(=O)N[C@@H](CO)C(=O)N[C@@H]([C@@H](C)CC)C(=O)N[C@@H](Cc1ccccc1)C(=O)NCC(=O)N[C@@H](CCCCN)C(=O)N2` [Compound 104] (H-CSASVECKQKCLKAIGSIFGKC[Nle]NKKCKCYPR-NH2; disulfide 1-22, 7-27, 11-29): the IC50 in test [1] is greater than 3000 nM; in test [2], greater than 3000 nM; in test [3] it was 0.43 nM; in test [4], greater than 3000 nM. The “Selectivity Kv1.2/Kv1.3” value in test [1] (ratio IC50[Kv1.2]/IC50[Kv1.3]) is greater than 7000. In addition, in test [2], the “Selectivity Kv1.6/Kv1.3” value is on record as greater than 7000. In test [4], the “Selectivity Kv1.1/Kv1.3” value is on record as greater than 7000. Moreover, the pIC50 in test [5] (setting [6]) was 9.92.

What is called IC50 is the concentration that gives 50% inhibition. As a reminder, the pIC50 is −log10 of the IC50, conventionally taken in molar units.
